Like-named read-outs stand apart in the source and are kept apart here.
System: patients with advanced TP53 wild-type (WT) leukemias

COc1ncc(-c2nc3c(n2C(C)C)[C@H](c2ccc(Cl)cc2)N(c2cc(Cl)cn(C)c2=O)C3=O)c(OC)n1 [HDM201, (S)-5-(5-Chloro-1-methyl-2-oxo-1,2-dihydro-pyridin-3-yl)-6-(4-chloro-phenyl)-2-(2,4-dimethoxy-pyrimidin-5-yl)-1-isopropyl-5,6-dihydro-1H-pyrrolo[3,4-d]imidazol-4-one]
1 (2.7) n (%): AE: Blood Creatinine Increased (All subjects N = 37, Grade 3/4) | AE: Blood Uric Acid Increased (All subjects N = 37, Grade 3/4) | AE: Bone Marrow Failure (All subjects N = 37, Grade 3/4) | AE: C-Reactive Protein Increased (All subjects N = 37, Grade 3/4) | AE: Cellulitis (All subjects N = 37, Grade 3/4) | AE: Chronic Graft Versus Host Disease (All subjects N = 37, Grade 3/4) | AE: Dyspnoea (All subjects N = 37, Grade 3/4) | AE: Gamma-Glutamyltransferase Increased (All subjects N = 37, Grade 3/4) | AE: Hyperkalaemia (All subjects N = 37, Grade 3/4) | AE: Hyperuricaemia (All subjects N = 37, Grade 3/4) | AE: Infection (All subjects N = 37, Grade 3/4) | AE: Macular Oedema (All subjects N = 37, Grade 3/4) | AE: Renal Failure (All subjects N = 37, Grade 3/4) | AE: Stomatitis (All subjects N = 37, Grade 3/4) | AE: Subarachnoid Haemorrhage (All subjects N = 37, Grade 3/4)
3 (18.8) n (%): AE: Amylase Increased (Regimen 1A N = 16, All Grades)
11 (29.7) n (%): AE: Febrile Neutropenia (All subjects N = 37, Grade 3/4) | AE: Neutropenia/Neutrophil Count Decreased (All subjects N = 37, Grade 3/4)
18 (48.6) n (%): AE: Thrombocytopenia/Platelet Count Decreased (All subjects N = 37, Grade 3/4)
25 (67.6) n (%): AE: Total (All subjects N = 37, Grade 3/4)
4 (25.0) n (%): AE: Decreased Appetite (Regimen 1A N = 16, All Grades) | AE: Diarrhoea (Regimen 1A N = 16, All Grades)
6 (37.5) n (%): AE: Anaemia (Regimen 1A N = 16, All Grades)
9 (24.3) n (%): AE: Tumour Lysis Syndrome (All subjects N = 37, Grade 3/4)
2 (12.5) n (%): AE: Abdominal Pain (Regimen 1A N = 16, All Grades) | AE: Asthenia (Regimen 1A N = 16, All Grades) | AE: Atrial Fibrillation (Regimen 1A N = 16, All Grades)
2 (5.4) n (%): AE: Hypophosphataemia (All subjects N = 37, Grade 3/4) | AE: Leukopenia (All subjects N = 37, Grade 3/4) | AE: Lipase Increased (All subjects N = 37, Grade 3/4) | AE: Pancytopenia (All subjects N = 37, Grade 3/4)
0 n (%): AE: Atypical Pneumonia (All subjects N = 37, Grade 3/4) | AE: Balanitis Candida (All subjects N = 37, Grade 3/4) | AE: Blood Alkaline Phosphatase Increased (All subjects N = 37, Grade 3/4) | AE: Blood Bilirubin Increased (All subjects N = 37, Grade 3/4) | AE: Blood Phosphorus Increased (All subjects N = 37, Grade 3/4) | AE: Cardiac Failure (All subjects N = 37, Grade 3/4) | AE: Conjunctival Haemorrhage (All subjects N = 37, Grade 3/4) | AE: Constipation (All subjects N = 37, Grade 3/4) | AE: Cough (All subjects N = 37, Grade 3/4) | AE: Cystitis Viral (All subjects N = 37, Grade 3/4) | AE: Cytomegalovirus Infection (All subjects N = 37, Grade 3/4) | AE: Decreased Appetite (All subjects N = 37, Grade 3/4) | AE: Diarrhoea (All subjects N = 37, Grade 3/4) | AE: Dyspepsia (All subjects N = 37, Grade 3/4) | AE: Epistaxis (All subjects N = 37, Grade 3/4) | AE: Fatigue (All subjects N = 37, Grade 3/4) | AE: General Physical Health Deterioration (All subjects N = 37, Grade 3/4) | AE: Gingival Bleeding (All subjects N = 37, Grade 3/4) | AE: Graft Versus Host Disease (All subjects N = 37, Grade 3/4) | AE: Haemoglobin Decreased (All subjects N = 37, Grade 3/4) | AE: Headache (All subjects N = 37, Grade 3/4) | AE: Hyperbilirubinaemia (All subjects N = 37, Grade 3/4) | AE: Hyperglycaemia (All subjects N = 37, Grade 3/4) | AE: Hyperphosphataemia (All subjects N = 37, Grade 3/4) | AE: Hypoalbuminaemia (All subjects N = 37, Grade 3/4) | AE: Hypocalcaemia (All subjects N = 37, Grade 3/4) | AE: Hypokalaemia (All subjects N = 37, Grade 3/4) | AE: Hypomagnesaemia (All subjects N = 37, Grade 3/4) | AE: Hyponatraemia (All subjects N = 37, Grade 3/4) | AE: Hypotension (All subjects N = 37, Grade 3/4) | AE: Infective Glossitis (All subjects N = 37, Grade 3/4) | AE: Iron Overload (All subjects N = 37, Grade 3/4) | AE: Lip Oedema (All subjects N = 37, Grade 3/4) | AE: Malaise (All subjects N = 37, Grade 3/4) | AE: Mouth Haemorrhage (All subjects N = 37, Grade 3/4) | AE: Nausea (All subjects N = 37, Grade 3/4) | AE: Oedema (All subjects N = 37, Grade 3/4) | AE: Oedema Peripheral (All subjects N = 37, Grade 3/4) | AE: Oral Disorder (All subjects N = 37, Grade 3/4) | AE: Pain In Extremity (All subjects N = 37, Grade 3/4) | AE: Pneumonia (All subjects N = 37, Grade 3/4) | AE: Pollakiuria (All subjects N = 37, Grade 3/4) | AE: Pyrexia (All subjects N = 37, Grade 3/4) | AE: Rash (All subjects N = 37, Grade 3/4) | AE: Rash Erythematous (All subjects N = 37, Grade 3/4) | AE: Rash Papular (All subjects N = 37, Grade 3/4) | AE: Rectal Haemorrhage (All subjects N = 37, Grade 3/4) | AE: Skin Exfoliation (All subjects N = 37, Grade 3/4) | AE: Vomiting (All subjects N = 37, Grade 3/4) | AE: Weight Decreased (All subjects N = 37, Grade 3/4) | AE: Bone Marrow Failure (Regimen 1A N = 16, All Grades) | AE: Cellulitis (Regimen 1A N = 16, All Grades) | AE: Constipation (Regimen 1A N = 16, All Grades) | AE: Cytomegalovirus Infection (Regimen 1A N = 16, All Grades) | AE: Epistaxis (Regimen 1A N = 16, All Grades)
3 (8.1) n (%): AE: White Blood Cell Count Decreased (All subjects N = 37, Grade 3/4)
1 (6.3) n (%): AE: Abdominal Discomfort (Regimen 1A N = 16, All Grades) | AE: Abdominal Pain Upper (Regimen 1A N = 16, All Grades) | AE: Acute Kidney Injury (Regimen 1A N = 16, All Grades) | AE: Arthralgia (Regimen 1A N = 16, All Grades) | AE: Atypical Pneumonia (Regimen 1A N = 16, All Grades) | AE: Balanitis Candida (Regimen 1A N = 16, All Grades) | AE: Blood Alkaline Phosphatase Increased (Regimen 1A N = 16, All Grades) | AE: Blood Bilirubin Increased (Regimen 1A N = 16, All Grades) | AE: Blood Creatinine Increased (Regimen 1A N = 16, All Grades) | AE: Blood Phosphorus Increased (Regimen 1A N = 16, All Grades) | AE: Blood Uric Acid Increased (Regimen 1A N = 16, All Grades) | AE: C-Reactive Protein Increased (Regimen 1A N = 16, All Grades) | AE: Cardiac Failure (Regimen 1A N = 16, All Grades) | AE: Chronic Graft Versus Host Disease (Regimen 1A N = 16, All Grades) | AE: Conjunctival Haemorrhage (Regimen 1A N = 16, All Grades) | AE: Cough (Regimen 1A N = 16, All Grades) | AE: Cystitis Viral (Regimen 1A N = 16, All Grades) | AE: Dyspepsia (Regimen 1A N = 16, All Grades) | AE: Dyspnoea (Regimen 1A N = 16, All Grades)
